Data reported in patent US20250388605A1, “HETEROBIFUNCTIONAL COMPOUNDS AND METHODS OF TREATING DISEASE” (Halda Therapeutics OpCo, Inc., priority 2022, published 2025).

Columns and labels:
[1] = system: T-Rex 293 cell line SC3 cells having increased expression of androgen receptor protein due to exposure to doxycycline; experiment: Cellular growth inhibition, T-Rex 293 SC3 cells with doxycycline (increased androgen receptor expression), CellTiter-Glo; assay type: cell-based; settings: T-Rex 293 SC3 cells with 10 ng/mL doxycycline (increased androgen receptor expression), 72 hours, CellTiter-Glo 2.0
Method in brief: (§1)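 Growth inhibition is measured in an inducible AR-expressing T-Rex 293 clone, SC3, cultured with or without 10 ng/mL doxycycline in hormone-depleted medium. Test compounds are applied for 72 hours. GI50 values derive from CellTiter-Glo 2.0 signal fitted by four-parameter regression.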

VCaP cells = experiment: Cellular growth inhibition assay for VCaP cells, CellTiter-Glo; assay type: cell-based, human; settings: 72 hours
Method in brief: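 GI50 values come from four-parameter curve fits of luminescence data normalized to a zero baseline. Compound, in medium with 0.5% DMSO, was added one day after plating and left for 72 h before CellTiter-Glo 2.0 addition.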

[2] = system: T-Rex 293 cell line SC3 cells lacking increased expression of androgen receptor protein; experiment: Cellular growth inhibition, T-Rex 293 SC3 cells without doxycycline (no increased androgen receptor expression), CellTiter-Glo; assay type: cell-based; settings: T-Rex 293 SC3 cells not exposed to doxycycline (no increased androgen receptor expression), 72 hours
Method in brief: as §1

T47D cells = experiment: Cellular Growth Inhibition Assay for T47D Cells (CellTiter-Glo); assay type: cell-based, human; settings: 72 hours
Method in brief: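 GI50 values derive from four-parameter regression of CellTiter-Glo 2.0 luminescence, using zero luminescence as baseline. Human breast cancer T47D cells (3000/well; DMEM, 10% FBS, 0.2 units/mL insulin) were exposed for 72 h to compound dilutions at 0.5% DMSO, with dosing starting 24 h after seeding.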

## CCS(=O)(=O)Cc1ccc(Oc2cccc(OCCCC3CCN(c4ncc(C(=O)N[C@H]5C(C)(C)[C@H](Oc6ccc(C#N)c(Cl)c6)C5(C)C)cn4)CC3)c2)c(-c2cn(C)c(=O)c3[nH]ccc23)c1 [Compound I-257]
[1]
  GI50: < 500 nM
VCaP cells; Homo sapiens
  GI50: < 500 nM
[2]
  GI50: < 500 nM
T47D cells; Homo sapiens
  GI50: < 500 nM

## CCS(=O)(=O)Nc1ccc(Oc2cccc(OC3CN(c4ncc(C(=O)N[C@H]5C(C)(C)[C@H](Oc6ccc(C#N)c(Cl)c6)C5(C)C)cn4)C3)c2)c(-c2cn(C)c(=O)c3[nH]ccc23)c1 [Compound I-30]
[1]
  GI50: < 500 nM
VCaP cells; Homo sapiens
  GI50: < 500 nM
[2]
  GI50: < 500 nM
T47D cells; Homo sapiens
  GI50: < 500 nM

## CCS(=O)(=O)c1ccc(OC2CC(OC3CC4(CCN(c5ncc(C(=O)NC6C(C)(C)C(Oc7ccc(C#N)c(Cl)c7)C6(C)C)cn5)CC4)C3)C2)c(-c2cn(C)c(=O)c3[nH]ccc23)c1 (stereo not shown) [Compound I-295, N-[3-(3-chloro-4-cyano-phenoxy)-2,2,4,4-tetramethyl-cyclobutyl]-2-[2-[3-[4-ethylsulfonyl-2-(6-methyl-7-oxo-1Hpyrrolo[2,3-c]pyridin-4-yl)phenoxy]cyclobutoxy]-7-azaspiro[3.5]nonan-7-yl]pyrimidine-5-carboxamide]
[1]
  GI50: < 500 nM
VCaP cells; Homo sapiens
  GI50: < 500 nM
[2]
  GI50: < 500 nM
T47D cells; Homo sapiens
  GI50: < 500 nM

## CCS(=O)(=O)Nc1ccc(Oc2cccc(C3CC(N(C)C4CCN(c5ncc(C(=O)N[C@H]6C(C)(C)[C@H](Oc7ccc(C#N)c(Cl)c7)C6(C)C)cn5)CC4)C3)c2)c(-c2cn(C)c(=O)c3[nH]ccc23)c1 (stereo partly shown) [Compound I-129]
[1]
  GI50: < 500 nM
VCaP cells
  GI50: < 500 nM
[2]
  GI50: < 500 nM
T47D cells
  GI50: < 500 nM

## Cn1cc(-c2cc(C(C)(C)O)ccc2Oc2cccc(N3CC(CN4C5CCC4CC(c4ncc(C(=O)N[C@H]6C(C)(C)[C@H](Oc7ccc(C#N)c(Cl)c7)C6(C)C)cn4)C5)C3)c2F)c2cc[nH]c2c1=O (stereo partly shown) [Compound I-258]
[1]
  GI50: < 500 nM
VCaP cells; Homo sapiens
  GI50: < 500 nM
[2]
  GI50: 500 to 1500 nM
T47D cells; Homo sapiens
  GI50: < 500 nM

## Cn1cc(-c2cc(C(C)(C)O)ccc2Oc2cccc(N3CC(CN4CC5CC4CN5c4ncc(C(=O)N[C@H]5C(C)(C)[C@H](Oc6ccc(C#N)c(Cl)c6)C5(C)C)cn4)C3)c2F)c2cc[nH]c2c1=O (stereo partly shown) [Compound I-241]
[1]
  GI50: < 500 nM
VCaP cells
  GI50: < 500 nM
[2]
  GI50: < 500 nM
T47D cells
  GI50: < 500 nM

## Cn1cc(-c2cc(C(C)(C)O)ccc2Oc2ccc(CCC3C4CN(c5ncc(C(=O)N[C@H]6C(C)(C)[C@H](Oc7ccc(C#N)c(Cl)c7)C6(C)C)cn5)CC34)cc2)c2cc[nH]c2c1=O (stereo partly shown) [Compound I-286]
[1]
  GI50: < 500 nM
VCaP cells
  GI50: < 500 nM
[2]
  GI50: 500 to 1500 nM
T47D cells
  GI50: < 500 nM

## Cn1cc(-c2cc(C(C)(C)O)ccc2Oc2ccc(N3CC4(CCCN(c5cnc(C(=O)N[C@H]6C(C)(C)[C@H](Oc7ccc(C#N)c(Cl)c7)C6(C)C)cn5)C4)C3)cc2)c2cc[nH]c2c1=O [Compound I-342]
[1]
  GI50: < 500 nM
VCaP cells
  GI50: < 500 nM
[2]
  GI50: > 3000 nM
T47D cells
  GI50: < 500 nM

## Cn1cc(-c2cc(C(C)(C)O)ccc2Oc2ccc(CC3CC(C4CCCN(c5ncc(C(=O)N[C@H]6C(C)(C)[C@H](Oc7ccc(C#N)c(Cl)c7)C6(C)C)cn5)C4)C3)cc2)c2cc[nH]c2c1=O (single isomer, unassigned) [Compound I-347]
[1]
  GI50: > 3000 nM
VCaP cells
  GI50: < 500 nM
[2]
  GI50: > 3000 nM
T47D cells
  GI50: < 500 nM

## CC(C)c1ccc(Oc2cccc(OCCN3CCN(c4ncc(C(=O)N[C@H]5C(C)(C)[C@H](Oc6ccc(C#N)c(Cl)c6)C5(C)C)cn4)CC3)c2F)c(-c2cn(C)c(=O)c3[nH]ccc23)c1 [Compound I-179]
[1]
  GI50: < 500 nM
VCaP cells
  GI50: > 3000 nM
[2]
  GI50: > 3000 nM
T47D cells
  GI50: 500 to 1500 nM

## Cn1cc(-c2cc(C(C)(C)O)ccc2Oc2cccc(OC3CC4(C3)CN(c3ncc(C(=O)N[C@H]5C(C)(C)[C@H](Oc6ccc(C#N)c(Cl)c6)C5(C)C)cn3)C4)c2)c2cc[nH]c2c1=O [Compound I-320]
[1]
  GI50: < 500 nM
VCaP cells
  GI50: < 500 nM
[2]
  GI50: < 500 nM
T47D cells
  GI50: < 500 nM

## Cn1cc(-c2cc(NS(=O)(=O)C3CC3)ccc2Oc2cccc(N3CC(CC4CCN(c5ncc(C(=O)N[C@H]6C(C)(C)[C@H](Oc7ccc(C#N)c(Cl)c7)C6(C)C)cn5)CC4)C3)c2F)c2cc[nH]c2c1=O [Compound I-170]
[1]
  GI50: < 500 nM
VCaP cells
  GI50: < 500 nM
[2]
  GI50: > 3000 nM
T47D cells
  GI50: 500 to 1500 nM

## Cn1cc(-c2ccccc2Oc2cccc(OCCC3CCN(c4ncc(C(=O)N[C@H]5C(C)(C)[C@H](Oc6ccc(C#N)c(Cl)c6)C5(C)C)cn4)CC3)c2)c2cc[nH]c2c1=O [Compound I-102]
[1]
  GI50: < 500 nM
VCaP cells; Homo sapiens
  GI50: < 500 nM
[2]
  GI50: 500 to 1500 nM
T47D cells; Homo sapiens
  GI50: 1500 to 3000 nM

## CCS(=O)(=O)Nc1ccc(Oc2cccc(C3CC(C4CCN(c5ncc(C(=O)N[C@H]6C(C)(C)[C@H](Oc7ccc(C#N)c(Cl)c7)C6(C)C)cn5)CC4)C3)c2)c(-c2cn(C)c(=O)c3[nH]ccc23)c1 (stereo partly shown) [Compound I-157]
[1]
  GI50: < 500 nM
VCaP cells; Homo sapiens
  GI50: < 500 nM
[2]
  GI50: > 3000 nM
T47D cells; Homo sapiens
  GI50: < 500 nM

## Cn1cc(-c2cc(C(C)(C)O)ccc2Oc2cccc(N3CCC(CC4CCN(c5ncc(C(=O)N[C@H]6C(C)(C)[C@H](Oc7ccc(C#N)c(Cl)c7)C6(C)C)cn5)CC4)CC3)c2)c2cc[nH]c2c1=O [Compound I-325]
[1]
  GI50: < 500 nM
VCaP cells
  GI50: > 3000 nM
[2]
  GI50: > 3000 nM
T47D cells
  GI50: < 500 nM

## CCS(=O)(=O)c1ccc(Oc2ccc(OC3CC4(C3)CN(c3ncc(C(=O)N[C@H]5C(C)(C)[C@H](Oc6ccc(C#N)c(Cl)c6)C5(C)C)cn3)C4)c(F)c2)c(-c2cn(C)c(=O)c3[nH]ccc23)c1 [Compound I-276]
[1]
  GI50: < 500 nM
VCaP cells; Homo sapiens
  GI50: < 500 nM
[2]
  GI50: < 500 nM
T47D cells; Homo sapiens
  GI50: < 500 nM

## CCS(=O)(=O)Nc1ccc(Oc2cccc(OC3CCN(c4ncc(C(=O)N[C@H]5C(C)(C)[C@H](Oc6ccc(C#N)c(Cl)c6)C5(C)C)cn4)CC3)c2)c(-c2cn(C)c(=O)c3[nH]ccc23)c1 [Compound I-24]
[1]
  GI50: < 500 nM
VCaP cells; Homo sapiens
  GI50: < 500 nM
[2]
  GI50: < 500 nM
T47D cells; Homo sapiens
  GI50: < 500 nM

## Cn1cc(-c2cc(C(C)(C)O)ccc2Oc2ccc(C3CC(N4CCN(c5ncc(C(=O)N[C@H]6C(C)(C)[C@H](Oc7ccc(C#N)c(Cl)c7)C6(C)C)cn5)CC4)C3)cc2)c2cc[nH]c2c1=O (stereo partly shown) [Compound I-311]
[1]
  GI50: < 500 nM
VCaP cells
  GI50: < 500 nM
[2]
  GI50: 500 to 1500 nM
T47D cells
  GI50: < 500 nM

## Cn1cc(-c2cc(N)ccc2Oc2cccc(N3CC(N4CCN(c5ncc(C(=O)N[C@H]6C(C)(C)[C@H](Oc7ccc(C#N)c(Cl)c7)C6(C)C)cn5)CC4)C3)c2)c2cc[nH]c2c1=O [Compound I-89, 2-(4-(1-(3-(4-amino-2-(6-methyl-7-oxo-6,7-dihydro-1H-pyrrolo[2,3-c]pyridin-4-yl)phenoxy)phenyl)azetidin-3-yl)piperazin-1-yl)-N-((1r, 3r)-3-(3-chloro-4-cyanophenoxy)-2,2,4,4-tetramethylcyclobutyl)pyrimidine-5-carboxamide]
[1]
  GI50: < 500 nM
VCaP cells; Homo sapiens
  GI50: < 500 nM
[2]
  GI50: > 3000 nM
T47D cells; Homo sapiens
  GI50: 500 to 1500 nM

## Cn1cc(-c2cc(C(C)(C)O)ccc2Oc2ccc(C(C)(C)N3CC4(CN(c5ncc(C(=O)N[C@H]6C(C)(C)[C@H](Oc7ccc(C#N)c(Cl)c7)C6(C)C)cn5)CCO4)C3)cc2)c2cc[nH]c2c1=O [Compound I-312]
[1]
  GI50: < 500 nM
VCaP cells
  GI50: < 500 nM
[2]
  GI50: 500 to 1500 nM
T47D cells
  GI50: 500 to 1500 nM

## Cn1cc(-c2cc(S(C)(=O)=O)ccc2Oc2cccc(CCCC3CCN(c4ncc(C(=O)N[C@H]5C(C)(C)[C@H](Oc6ccc(C#N)c(Cl)c6)C5(C)C)cn4)CC3)c2F)c2cc[nH]c2c1=O [Compound I-250]
[1]
  GI50: < 500 nM
VCaP cells
  GI50: 500 to 1500 nM
[2]
  GI50: > 3000 nM
T47D cells
  GI50: < 500 nM

## CCS(=O)(=O)Nc1ccc(Oc2cccc(N3CCC(N(C)C4CCN(c5ncc(C(=O)N[C@H]6C(C)(C)[C@H](Oc7ccc(C#N)c(Cl)c7)C6(C)C)cn5)CC4)C3)c2)c(-c2cn(C)c(=O)c3[nH]ccc23)c1 (stereo partly shown) [Compound I-41]
[1]
  GI50: < 500 nM
VCaP cells; Homo sapiens
  GI50: < 500 nM
[2]
  GI50: 500 to 1500 nM
T47D cells; Homo sapiens
  GI50: < 500 nM

## Cn1cc(-c2cc(C(C)(C)O)ccc2Oc2ccc(C3(NC4CCN(c5ncc(C(=O)N[C@H]6C(C)(C)[C@H](Oc7ccc(C#N)c(Cl)c7)C6(C)C)cn5)CC4)COC3)cc2)c2cc[nH]c2c1=O [Compound I-246]
[1]
  GI50: < 500 nM
VCaP cells
  GI50: < 500 nM
[2]
  GI50: < 500 nM
T47D cells
  GI50: 500 to 1500 nM

## CCS(=O)(=O)c1ccc(Oc2ccc(N3CC(C4CCN(c5ncc(C(=O)N[C@H]6C(C)(C)[C@H](Oc7ccc(C#N)c(Cl)c7)C6(C)C)cn5)CC4)C3)cc2)c(-c2cn(C)c(=O)c3[nH]ccc23)c1 [Compound I-291]
[1]
  GI50: < 500 nM
VCaP cells
  GI50: < 500 nM
[2]
  GI50: < 500 nM
T47D cells
  GI50: < 500 nM

## Cn1cc(-c2cc(N)ccc2Oc2cccc(OCCC3CCN(c4ncc(C(=O)N[C@H]5C(C)(C)[C@H](Oc6ccc(C#N)c(Cl)c6)C5(C)C)cn4)CC3)c2F)c2cc[nH]c2c1=O [Compound I-103]
[1]
  GI50: < 500 nM
VCaP cells; Homo sapiens
  GI50: < 500 nM
[2]
  GI50: > 3000 nM
T47D cells; Homo sapiens
  GI50: 1500 to 3000 nM
